# In publication PMC11672299, “Conjugation of Polycationic Peptides Extends the Efficacy Spectrum of β‐Lactam Antibiotics” (Advanced Science, 2024):
# Where two headings read alike, the source gives them in different places. Square brackets hold non-standard residues; d marks the D form. Peptide text beside a SMILES is read from it. * marks the point of attachment. X1 = CC(C)(O/N=C(\C(=O)N[C@@H]1C(=O)N2C(C(=O)[O-])=C(C[n+]3ccccc3)CS[C@H]12)c1csc(N)n1)C(=O)NCCCCCCN1C(=O)CC(*)C1=O
# Columns and labels:
# [1] = test system: A. baumannii SC300007 (Oxa23); assay: microbe, parasite or virus in culture; assay type: cell-based; details: Acinetobacter baumannii, 20 h, combinations: avibactam fixed 4 mg L^−1, clavulanic acid 2 mg L^−1, median (n = 3)
# Experimental: (§1) The minimum inhibitory concentration (MIC) of the β‐lactam–peptide conjugates was determined by broth microdilution as previously described.^[ [17] ^] Briefly, in cation‐adjusted MHB II medium, a twofold serial dilution of the compounds was prepared in 96‐well round‐bottom polystyrene or polypropylene microtiter plates with each well containing 50 µL. The plates were inoculated with 50 µL bacterial suspension and the final inoculum, in a total volume of 100 µL, contained 5 × 10^5 CFU mL^−1. The microplates were incubated for 20 h at 37 ± 1 °C. The lowest concentration preventing visible bacterial growth was considered the MIC value. For susceptibility testing of combinations of β‐lactamase‐inhibitors with either a β‐lactam antibiotic or a β‐lactam–peptide conjugate, fixed concentrations of the inhibitors according to the EUCAST (European Committee on Antimicrobial Susceptibility Testing) guidelines (clavulanic acid = 2 mg L^−1, avibactam = 4 mg L^−1) were used.
# [2] = test system: B. subtilis DSM 10; assay: microbe, parasite or virus in culture; assay type: cell-based
# Experimental: as §1
# [3] = test system: K. pneumoniae 0 6841/Nr.45 (Oxa48); assay: microbe, parasite or virus in culture; assay type: cell-based; details: Klebsiella pneumoniae, 20 h; K. pneumoniae 06841/Nr.45 (Oxa48); combinations: avibactam fixed 4 mg L^−1, clavulanic acid 2 mg L^−1; median (n = 3)
# Experimental: as §1
# [4] = test system: E. coli ATCC 25 922 (–); assay: microbe, parasite or virus in culture; assay type: cell-based; details: Escherichia coli, 20 h; E. coli ATCC 25922 (no β‐lactamase); combinations: avibactam fixed 4 mg L^−1, clavulanic acid 2 mg L^−1; median (n = 3)
# Experimental: as §1
# [5] = test system: K. pneumoniae BL809453 (KPC); assay: microbe, parasite or virus in culture; assay type: cell-based; details: Klebsiella pneumoniae, 20 h, combinations: avibactam fixed 4 mg L^−1, clavulanic acid 2 mg L^−1, median (n = 3)
# Experimental: as §1
# [6] = test system: K. pneumoniae ATCC 700 603 (SHV‐18); assay: microbe, parasite or virus in culture; assay type: cell-based; details: Klebsiella pneumoniae, 20 h; K. pneumoniae ATCC 700603 (SHV‐18); combinations: avibactam fixed 4 mg L^−1, clavulanic acid 2 mg L^−1; median (n = 3)
# Experimental: as §1
# [7] = test system: E. faecalis ATCC 29212; assay: microbe, parasite or virus in culture; assay type: cell-based; details: E. faecalis ATCC 29212, median (n = 3)
# Experimental: as §1
# [8] = test system: E. casseliflavus ATCC 700327; assay: microbe, parasite or virus in culture; assay type: cell-based; details: E. casseliflavus ATCC 700327, median (n = 3)
# Experimental: as §1
# [9] = Scintigraphy in mice; assay type: in vivo, Swiss mice
# Experimental: To enable radiolabeling of the β‐lactam–peptide conjugates, their peptide sequence was elongated by an N‐terminal D‐tyrosine. […] The solution was mixed with 5 MBq of iodine‐125 and radiolabeling was performed using the chloramine T method as previously described.^[ [35] ^] After 30 s, the reaction was quenched by the addition of a saturated methionine solution and the radiolabeled compound purified by reversed‐phase preparative radio‐HPLC (1100 series, Agilent Technologies, Santa Clara, CA, USA). Analysis was performed by analytical radio‐HPLC (1100 series, Agilent Technologies, Santa Clara, CA, USA) using a linear gradient from water (+ 0.1% TFA) to acetonitrile (+ 0.1% TFA) over 5 min at a flow rate of 2 mL min^−1.
# All animal studies were approved by the Animal Care and Use committees from Regierungspräsidium Karlsruhe (Karlsruhe, Germany; reference number 35–9185.81/G‐199/21; date of approval: November 23, 2021). To obtain scintigraphic images, 1–3 MBq of the respective ^125I‐radiolabeled β‐lactam–peptide conjugate was intravenously injected into the tail vein of isoflurane anaesthetized female Wistar rats or Swiss mice. Scintigraphic images were taken with a γ‐camera (Biospace Lab, Nesles‐la‐Vallée, France) at 10 min, 1, 2, 3, and 24 h after injection of the compounds.
# [10] = Bacillus subtilis, DSM10, B. subtilis DSM 10, median (n = 3), read-out: MIC
# [11] = Swiss mice, i.v., ^125I‐labelled, scintigraphy
compound,measurement,setting,value
"CC1(C)S[C@@H]2[C@H](NC(=O)[C@H](N)c3ccc(O)cc3)C(=O)N2[C@H]1C(=O)O [AMO, amoxicillin]",MIC,[1],> 64 µg/mL
same,MIC,[2]; [10],0.1 µg/mL
same,MIC,[3],> 64 µg/mL
same,MIC,[4],6 µg/mL
same,MIC,[5],> 64 µg/mL
same,MIC,[6],> 64 µg/mL
"NC(=O)[C@@H]1CC[C@@H]2CN1C(=O)N2OS(=O)(=O)O [AVI, avibactam]",MIC,[1],> 64 µg/mL
same,MIC,[3],> 64 µg/mL
same,MIC,[4],16 µg/mL
same,MIC,[5],> 64 µg/mL
same,MIC,[6],> 64 µg/mL
"C[C@H]1[C@H](NC(=O)/C(=N\OC(C)(C)C(=O)O)c2csc(N)n2)C(=O)N1S(=O)(=O)O [AZT, aztreonam]",MIC,[1],64 µg/mL
same,MIC,"[2]; Bacillus subtilis, DSM10",512 µg/mL
same,MIC,[4],0.06 µg/mL
"NC(=O)CCCCCN1C(=O)C=CC1=O [BB linker, 6‐maleinimidohexanamide linker]",MIC,"[2]; B. subtilis DSM 10, median (n = 3)",> 64 µg/mL
same,MIC,[7],> 64 µg/mL
same,MIC,[8],> 64 µg/mL
"O=C(O)[C@H]1/C(=C/CO)O[C@@H]2CC(=O)N21 [CLV, clavulanic acid]",MIC,[1],> 64 µg/mL
same,MIC,[3],> 64 µg/mL
same,MIC,[4],32 µg/mL
same,MIC,[5],> 64 µg/mL
same,MIC,[6],64 µg/mL
CC(C)(O/N=C(\C(=O)N[C@@H]1C(=O)N2C(C(=O)[O-])=C(C[n+]3ccccc3)CS[C@H]12)c1csc(N)n1)C(=O)NCCCCCCN1C(=O)CC(SC[C@H](NC(=O)[C@H](CCCNC(=N)N)NC(=O)[C@H](CCCCN)NC(=O)[C@H](CCCNC(=N)N)NC(=O)[C@H](CCCCN)NC(=O)[C@H](CCCNC(=N)N)NC(=O)[C@@H](N)CCCCN)C(N)=O)C1=O (some centres unmarked) [CTZ-(KR)3] (H-KRKRKRC(X1)-NH2; N-terminus assumed),MIC,"[2]; DSM 10, 20 h",0.008 µg/mL
CC(C)(O/N=C(\C(=O)N[C@@H]1C(=O)N2C(C(=O)[O-])=C(C[n+]3ccccc3)CS[C@H]12)c1csc(N)n1)C(=O)NCCCCCCN1C(=O)CC(SC[C@H](NC(=O)[C@H](CCC(=O)O)NC(=O)[C@H](CCC(=O)O)NC(=O)[C@H](CCC(=O)O)NC(=O)[C@H](CCC(=O)O)NC(=O)[C@H](CCC(=O)O)NC(=O)[C@@H](N)CCC(=O)O)C(N)=O)C1=O (some centres unmarked) [CTZ-E6],MIC,"[2]; DSM 10, 20 h",> 64 µg/mL
CC(C)(O/N=C(\C(=O)N[C@@H]1C(=O)N2C(C(=O)[O-])=C(C[n+]3ccccc3)CS[C@H]12)c1csc(N)n1)C(=O)NCCCCCCN1C(=O)CC(SC[C@H](NC(=O)CNC(=O)CNC(=O)CNC(=O)CNC(=O)CNC(=O)CN)C(N)=O)C1=O (some centres unmarked) [CTZ-G6] (H-GGGGGGC(X1)-NH2; N-terminus assumed),MIC,"[2]; DSM 10, 20 h",8 µg/mL
CC(C)(O/N=C(\C(=O)N[C@@H]1C(=O)N2C(C(=O)[O-])=C(C[n+]3ccccc3)CS[C@H]12)c1csc(N)n1)C(=O)NCCCCCCN1C(=O)CC(SC[C@H](NC(=O)[C@@H](N)CCCCN)C(N)=O)C1=O (some centres unmarked) [CTZ-K1],MIC,"[2]; DSM 10, 20 h",1 µg/mL
CC(C)(O/N=C(\C(=O)N[C@@H]1C(=O)N2C(C(=O)[O-])=C(C[n+]3ccccc3)CS[C@H]12)c1csc(N)n1)C(=O)NCCCCCCN1C(=O)CC(SC[C@H](NC(=O)[C@H](CCCCN)NC(=O)[C@H](CCCCN)NC(=O)[C@H](CCCCN)NC(=O)[C@H](CCCCN)NC(=O)[C@H](CCCCN)NC(=O)[C@@H](N)CCCCN)C(N)=O)C1=O (some centres unmarked) [CTZ-K6] (H-KKKKKKC(X1)-NH2; N-terminus assumed),MIC,"[2]; DSM 10, 20 h",0.02 µg/mL
same,elimination route / biodistribution,"[9]; mouse, in vivo, iv",renal elimination
CC(C)(O/N=C(\C(=O)N[C@@H]1C(=O)N2C(C(=O)[O-])=C(C[n+]3ccccc3)CS[C@H]12)c1csc(N)n1)C(=O)NCCCCCCN1C(=O)CC(SC[C@H](NC(=O)[C@H](CCCCN)NC(=O)[C@H](CCCCN)NC(=O)[C@H](CCCCN)NC(=O)[C@H](CCCCN)NC(=O)[C@H](CCCCN)NC(=O)[C@H](CCCCN)NC(=O)[C@H](CCCCN)NC(=O)[C@H](CCCCN)NC(=O)[C@H](CCCCN)NC(=O)[C@H](CCCCN)NC(=O)[C@H](CCCCN)NC(=O)[C@@H](N)CCCCN)C(N)=O)C1=O (some centres unmarked) [CTZ-K12] (H-KKKKKKKKKKKKC(X1)-NH2),MIC,"[2]; DSM 10, 20 h",0.02 µg/mL
CC(C)(O/N=C(\C(=O)N[C@@H]1C(=O)N2C(C(=O)[O-])=C(C[n+]3ccccc3)CS[C@H]12)c1csc(N)n1)C(=O)NCCCCCCN1C(=O)CC(SC[C@H](NC(=O)[C@@H](N)CCCNC(=N)N)C(N)=O)C1=O (some centres unmarked) [CTZ-R1],MIC,"[2]; DSM 10, 20 h",1 µg/mL
CC(C)(O/N=C(\C(=O)N[C@@H]1C(=O)N2C(C(=O)[O-])=C(C[n+]3ccccc3)CS[C@H]12)c1csc(N)n1)C(=O)NCCCCCCN1C(=O)CC(SC[C@H](NC(=O)[C@H](CCCCN)NC(=O)[C@H](CCCCN)NC(=O)[C@H](CCCCN)NC(=O)[C@H](CCCNC(=N)N)NC(=O)[C@H](CCCNC(=N)N)NC(=O)[C@@H](N)CCCNC(=N)N)C(N)=O)C1=O (some centres unmarked) [CTZ-R3K3] (H-RRRKKKC(X1)-NH2; N-terminus assumed),MIC,"[2]; DSM 10, 20 h",0.008 µg/mL
CC(C)(O/N=C(\C(=O)N[C@@H]1C(=O)N2C(C(=O)[O-])=C(C[n+]3ccccc3)CS[C@H]12)c1csc(N)n1)C(=O)NCCCCCCN1C(=O)CC(SC[C@H](NC(=O)[C@H](CCCNC(=N)N)NC(=O)[C@H](CCCNC(=N)N)NC(=O)[C@@H](N)CCCNC(=N)N)C(N)=O)C1=O (some centres unmarked) [CTZ-R3],MIC,"[2]; DSM 10, 20 h",0.06 µg/mL
CC(C)(O/N=C(\C(=O)N[C@@H]1C(=O)N2C(C(=O)[O-])=C(C[n+]3ccccc3)CS[C@H]12)c1csc(N)n1)C(=O)NCCCCCCN1C(=O)CC(SC[C@H](NC(=O)[C@H](CCCCN)NC(=O)[C@H](CCCCN)NC(=O)[C@H](CCCCN)NC(=O)[C@H](CCCCN)NC(=O)[C@H](CCCCN)NC(=O)[C@H](CCCCN)NC(=O)[C@H](N)Cc2ccc(O)cc2)C(N)=O)C1=O (some centres unmarked) [CTZ-yK6] (H-[dY]KKKKKKC(X1)-NH2; N-terminus assumed),elimination route / biodistribution,[9]; [11],eliminated by the kidneys
CC(C)(O/N=C(\C(=O)N[C@@H]1C(=O)N2C(C(=O)[O-])=C(C[n+]3ccccc3)CS[C@H]12)c1csc(N)n1)C(=O)NCCCCCCN1C(=O)CC(SC[C@H](NC(=O)[C@H](CCCNC(=N)N)NC(=O)[C@H](CCCNC(=N)N)NC(=O)[C@H](CCCNC(=N)N)NC(=O)[C@H](CCCNC(=N)N)NC(=O)[C@H](CCCNC(=N)N)NC(=O)[C@H](CCCNC(=N)N)NC(=O)[C@H](N)Cc2ccc(O)cc2)C(N)=O)C1=O (some centres unmarked) [CTZ-yR6] (H-[dY]RRRRRRC(X1)-NH2; N-terminus assumed),elimination route / biodistribution,[9]; [11],mainly accumulated in the liver
CC(C)(O/N=C(\C(=O)N[C@@H]1C(=O)N2C(C(=O)O)=C(C[n+]3ccccc3)CS[C@H]12)c1csc(N)n1)C(=O)NCCCCCCN1C(=O)C=CC1=O [CTZ–BB linker],MIC,[2]; [10],24 µg/mL
same,MIC,"[7]; Enterococcus faecalis, ATCC29212, read-out: MIC",1 µg/mL
same,MIC,"[8]; Enterococcus casseliflavus, ATCC700327, read-out: MIC",> 64 µg/mL
"C[C@@H](O)[C@H]1C(=O)N2C(C(=O)O)=C(S[C@@H]3CN[C@H](C(=O)Nc4cccc(C(=O)O)c4)C3)[C@H](C)[C@H]12 [ERT, ertapenem, reference compound]",MIC,[2]; [10],0.5 µg/mL
